{"source": "patent US12281080B2", "about": "“Quinoline-based compounds and methods of inhibiting CDK8/19” (University of South Carolina, priority 2018, dated 2025)", "key": {"ROCK2": {"biological_target": "ROCK2 (Homo sapiens (Human), UniProt O75116)", "sequence (O75116 whole entry)": "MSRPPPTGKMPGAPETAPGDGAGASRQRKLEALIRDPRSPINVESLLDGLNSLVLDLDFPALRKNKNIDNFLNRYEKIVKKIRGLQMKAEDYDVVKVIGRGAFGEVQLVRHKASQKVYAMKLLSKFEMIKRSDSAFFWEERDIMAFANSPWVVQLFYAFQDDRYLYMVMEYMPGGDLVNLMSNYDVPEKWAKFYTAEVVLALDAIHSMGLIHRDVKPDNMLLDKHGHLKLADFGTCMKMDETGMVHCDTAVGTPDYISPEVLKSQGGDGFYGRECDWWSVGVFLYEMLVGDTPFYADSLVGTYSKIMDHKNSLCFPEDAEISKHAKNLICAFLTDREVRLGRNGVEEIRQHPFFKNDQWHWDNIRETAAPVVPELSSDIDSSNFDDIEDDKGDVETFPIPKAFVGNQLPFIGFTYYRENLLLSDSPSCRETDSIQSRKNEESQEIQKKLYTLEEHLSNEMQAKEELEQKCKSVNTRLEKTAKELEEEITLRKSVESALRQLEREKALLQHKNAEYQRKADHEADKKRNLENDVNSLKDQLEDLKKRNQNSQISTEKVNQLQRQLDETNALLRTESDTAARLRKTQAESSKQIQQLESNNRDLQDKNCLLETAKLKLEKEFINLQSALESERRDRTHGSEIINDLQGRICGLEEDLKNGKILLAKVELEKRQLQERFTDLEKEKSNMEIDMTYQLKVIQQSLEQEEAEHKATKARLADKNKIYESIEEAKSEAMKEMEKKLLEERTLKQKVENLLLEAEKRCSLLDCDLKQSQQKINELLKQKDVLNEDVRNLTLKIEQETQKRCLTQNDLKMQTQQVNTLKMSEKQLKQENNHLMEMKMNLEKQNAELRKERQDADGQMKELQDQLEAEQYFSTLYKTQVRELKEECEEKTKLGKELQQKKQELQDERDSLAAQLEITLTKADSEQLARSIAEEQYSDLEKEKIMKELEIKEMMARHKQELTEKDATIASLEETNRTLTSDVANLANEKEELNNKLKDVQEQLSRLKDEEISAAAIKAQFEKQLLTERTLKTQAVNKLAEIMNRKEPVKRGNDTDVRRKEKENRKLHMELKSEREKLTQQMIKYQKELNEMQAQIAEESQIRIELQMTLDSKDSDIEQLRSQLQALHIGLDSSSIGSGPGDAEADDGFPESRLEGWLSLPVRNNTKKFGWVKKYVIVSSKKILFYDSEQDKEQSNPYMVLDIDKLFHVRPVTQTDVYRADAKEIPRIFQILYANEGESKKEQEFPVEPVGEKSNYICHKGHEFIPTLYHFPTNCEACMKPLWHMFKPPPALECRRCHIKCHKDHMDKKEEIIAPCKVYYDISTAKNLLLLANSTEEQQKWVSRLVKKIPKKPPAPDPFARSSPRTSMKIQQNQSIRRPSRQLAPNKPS", "test": "KINOMEscan scanMAX", "type": "binding", "details": "2000 nM; read-out: Percent Control"}, "MYC": {"system": "MYC", "test": "QPCR gene expression in TNFα-treated HEK293 cells", "type": "cell-based, human", "details": "Homo sapiens, HEK293; range stated for all three genes", "excerpt": "(§1) Two types of cell-based assays for CDK8/19 inhibition were used to test the efficacy of quinoline quinolone compounds described herein (FIG. 3A). The first cell-based assay, which measures the effects of CDK8/19 inhibitors on RNA levels of CDK8/19-regulated genes by quantitative reverse transcription-PCR (QPCR), is based on the ability of CDK8/19 inhibitors to suppress the induction of NFκB-inducible genes by TNFα and to inhibit basal expression of MYC in human embryonic kidney (HEK) 293 cells, as previously described. In this assay, 293 cells growing in DMEM (High-glucose) media supplemented with 10% FBS are pre-treated with the tested inhibitors or DMSO control for 1 hour and then treated with 10 ng/mL TNFα (an activator of NFκB) for 2 hours (in the presence or absence of the tested inhibitors), followed by RNA extraction and QPCR analysis of RNA expression of specific genes conducted as described (Chen et al., ibid), using housekeeping genes RPL13A and GAPDH as normalization standards. […] All the quinoline derivatives inhibited the expression of all three genes."}, "IL8": {"system": "IL8", "test": "QPCR gene expression in TNFα-treated HEK293 cells", "type": "cell-based, human", "details": "Homo sapiens, HEK293; range stated for all three genes", "excerpt": "as §1"}, "CXCL1": {"system": "CXCL1", "test": "QPCR gene expression in TNFα-treated HEK293 cells", "type": "cell-based, human", "details": "Homo sapiens, HEK293; range stated for all three genes", "excerpt": "as §1"}, "[1]": {"system": "NFκB-dependent promoter in CDK8/19 deficient (double-knockout) reporter cells", "test": "NFκB-dependent luciferase reporter assay, CDK8/19 double-knockout vs wild-type 293 cells", "details": "double-knockout vs parental reporter cells", "from_the_text": "The second cell-based assay measures the effects of CDK8/19 on the expression of firefly luciferase reporter from a NFκB-dependent promoter in 293 cells."}, "[2]": {"biological_target": "ABL1(Q252H)-phosphorylated (Homo sapiens (Human), UniProt P00519, Q252H)", "test": "KINOMEscan scanMAX", "type": "binding", "details": "2000 nM; read-out: Percent Control"}, "MLK1 (MAP3K9)": {"biological_target": "MLK1 (MAP3K9) (Homo sapiens (Human), UniProt P80192)", "test": "KINOMEscan scanMAX", "type": "binding", "details": "2000 nM; read-out: Percent Control"}, "EPHA8": {"biological_target": "EPHA8 (Homo sapiens (Human), UniProt P29322)", "test": "KINOMEscan scanMAX", "type": "binding", "details": "2000 nM; read-out: Percent Control"}, "SgK110": {"biological_target": "SgK110 (Homo sapiens (Human), UniProt P0C264)", "sequence (P0C264 whole entry)": "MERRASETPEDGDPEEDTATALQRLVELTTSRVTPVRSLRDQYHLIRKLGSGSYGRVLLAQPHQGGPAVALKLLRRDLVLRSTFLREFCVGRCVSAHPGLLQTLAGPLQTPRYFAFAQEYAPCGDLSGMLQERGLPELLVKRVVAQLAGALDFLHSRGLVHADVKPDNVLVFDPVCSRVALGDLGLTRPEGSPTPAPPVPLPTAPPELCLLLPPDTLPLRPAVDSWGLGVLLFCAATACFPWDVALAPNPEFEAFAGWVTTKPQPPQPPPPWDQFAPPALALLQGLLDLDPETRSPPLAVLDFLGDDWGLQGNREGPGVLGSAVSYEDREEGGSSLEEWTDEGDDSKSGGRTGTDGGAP", "test": "KINOMEscan scanMAX", "type": "binding", "details": "2000 nM; read-out: Percent Control"}, "MAP4K2": {"biological_target": "MAP4K2 (Homo sapiens (Human), UniProt Q12851)", "test": "KINOMEscan scanMAX", "type": "binding", "details": "2000 nM; read-out: Percent Control"}, "LATS2": {"biological_target": "LATS2 (Homo sapiens (Human), UniProt Q9NRM7)", "sequence (Q9NRM7 whole entry)": "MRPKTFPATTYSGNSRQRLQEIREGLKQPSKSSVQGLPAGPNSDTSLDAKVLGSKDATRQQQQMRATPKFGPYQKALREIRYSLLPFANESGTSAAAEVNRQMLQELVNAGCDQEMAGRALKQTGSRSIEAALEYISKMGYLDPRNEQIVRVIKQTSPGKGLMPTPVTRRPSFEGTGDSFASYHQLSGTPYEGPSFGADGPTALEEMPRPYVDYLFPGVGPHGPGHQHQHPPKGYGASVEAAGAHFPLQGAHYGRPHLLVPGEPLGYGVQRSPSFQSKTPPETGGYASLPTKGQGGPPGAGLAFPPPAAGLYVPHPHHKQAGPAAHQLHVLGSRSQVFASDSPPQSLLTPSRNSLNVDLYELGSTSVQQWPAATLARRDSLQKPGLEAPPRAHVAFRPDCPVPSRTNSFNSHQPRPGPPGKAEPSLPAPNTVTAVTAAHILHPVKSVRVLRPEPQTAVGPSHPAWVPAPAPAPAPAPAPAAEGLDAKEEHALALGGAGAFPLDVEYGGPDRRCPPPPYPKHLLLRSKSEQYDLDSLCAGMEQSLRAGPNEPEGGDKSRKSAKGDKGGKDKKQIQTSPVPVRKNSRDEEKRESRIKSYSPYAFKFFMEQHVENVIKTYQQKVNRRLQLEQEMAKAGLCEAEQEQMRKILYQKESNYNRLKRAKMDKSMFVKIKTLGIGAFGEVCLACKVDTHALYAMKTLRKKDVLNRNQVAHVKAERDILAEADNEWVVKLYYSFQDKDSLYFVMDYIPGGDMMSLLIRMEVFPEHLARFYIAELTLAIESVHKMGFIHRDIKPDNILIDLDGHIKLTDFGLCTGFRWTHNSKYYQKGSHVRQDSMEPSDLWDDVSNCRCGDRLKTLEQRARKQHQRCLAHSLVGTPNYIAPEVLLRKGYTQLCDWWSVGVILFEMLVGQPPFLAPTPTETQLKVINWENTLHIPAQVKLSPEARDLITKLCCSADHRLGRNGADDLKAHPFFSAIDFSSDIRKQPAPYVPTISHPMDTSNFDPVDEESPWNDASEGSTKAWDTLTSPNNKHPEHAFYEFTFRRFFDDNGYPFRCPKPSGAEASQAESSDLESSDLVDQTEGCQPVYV", "test": "KINOMEscan scanMAX", "type": "binding", "details": "2000 nM; read-out: Percent Control"}, "LKB1 (STK11)": {"biological_target": "LKB1 (STK11) (Homo sapiens (Human), UniProt Q15831)", "test": "KINOMEscan scanMAX", "type": "binding", "details": "2000 nM; read-out: Percent Control"}, "PIK3CA(E545K)": {"biological_target": "PIK3CA(E545K) (Homo sapiens (Human), UniProt P42336, E545K)", "sequence (P42336 whole entry E545K)": "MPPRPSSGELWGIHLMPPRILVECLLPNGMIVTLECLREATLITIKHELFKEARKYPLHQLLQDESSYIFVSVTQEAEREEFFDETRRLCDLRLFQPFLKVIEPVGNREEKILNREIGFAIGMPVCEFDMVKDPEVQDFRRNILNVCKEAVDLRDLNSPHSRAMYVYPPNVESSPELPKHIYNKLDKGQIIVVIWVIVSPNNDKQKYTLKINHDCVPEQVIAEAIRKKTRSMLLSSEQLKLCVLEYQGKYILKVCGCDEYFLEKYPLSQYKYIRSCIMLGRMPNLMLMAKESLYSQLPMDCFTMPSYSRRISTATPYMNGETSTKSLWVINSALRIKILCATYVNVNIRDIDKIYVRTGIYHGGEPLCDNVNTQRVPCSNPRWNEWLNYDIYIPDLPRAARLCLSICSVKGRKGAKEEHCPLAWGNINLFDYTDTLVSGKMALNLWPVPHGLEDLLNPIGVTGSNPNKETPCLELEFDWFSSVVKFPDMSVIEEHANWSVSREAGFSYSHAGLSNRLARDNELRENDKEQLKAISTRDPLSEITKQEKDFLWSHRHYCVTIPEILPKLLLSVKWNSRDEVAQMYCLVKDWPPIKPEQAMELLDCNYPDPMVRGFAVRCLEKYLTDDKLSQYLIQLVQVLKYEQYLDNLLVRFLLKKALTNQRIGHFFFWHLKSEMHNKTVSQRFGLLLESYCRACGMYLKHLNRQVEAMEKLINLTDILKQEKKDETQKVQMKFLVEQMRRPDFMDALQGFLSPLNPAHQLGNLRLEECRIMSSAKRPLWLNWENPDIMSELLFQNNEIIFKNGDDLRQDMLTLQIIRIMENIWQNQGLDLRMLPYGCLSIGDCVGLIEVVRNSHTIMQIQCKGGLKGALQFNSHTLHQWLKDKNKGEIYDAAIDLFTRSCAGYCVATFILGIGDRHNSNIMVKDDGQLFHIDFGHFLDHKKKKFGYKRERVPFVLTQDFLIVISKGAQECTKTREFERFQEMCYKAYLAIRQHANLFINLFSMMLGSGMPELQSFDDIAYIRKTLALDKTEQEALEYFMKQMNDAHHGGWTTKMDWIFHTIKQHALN", "test": "KINOMEscan scanMAX", "type": "binding", "details": "2000 nM; read-out: Percent Control"}, "EIF2AK1": {"biological_target": "EIF2AK1 (Homo sapiens (Human), UniProt Q9BQI3)", "test": "KINOMEscan scanMAX", "type": "binding", "details": "2000 nM; read-out: Percent Control"}, "IRAK4": {"biological_target": "IRAK4 (Homo sapiens (Human), UniProt Q9NWZ3)", "test": "KINOMEscan scanMAX", "type": "binding", "details": "2000 nM; read-out: Percent Control"}, "PYK2 (PTK2B)": {"biological_target": "PYK2 (PTK2B) (Homo sapiens (Human), UniProt Q14289)", "test": "KINOMEscan scanMAX", "type": "binding", "details": "2000 nM; read-out: Percent Control"}, "TAK1 (MAP3K7)": {"biological_target": "TAK1 (MAP3K7) (Homo sapiens (Human), UniProt O43318)", "test": "KINOMEscan scanMAX", "type": "binding", "details": "2000 nM; read-out: Percent Control"}, "CSNK1E": {"biological_target": "CSNK1E (Homo sapiens (Human), UniProt P49674)", "test": "KINOMEscan scanMAX", "type": "binding", "details": "2000 nM; read-out: Percent Control"}, "BMPR2": {"biological_target": "BMPR2 (Homo sapiens (Human), UniProt Q13873)", "test": "KINOMEscan scanMAX", "type": "binding", "details": "2000 nM; read-out: Percent Control"}, "MAP3K4": {"biological_target": "MAP3K4 (Homo sapiens (Human), UniProt Q9Y6R4)", "test": "KINOMEscan scanMAX", "type": "binding", "details": "2000 nM; read-out: Percent Control"}, "PIK3CA(Q546K)": {"biological_target": "PIK3CA(Q546K) (Homo sapiens (Human), UniProt P42336, Q546K)", "sequence (P42336 whole entry Q546K)": "as the sequence (P42336 whole entry E545K) above, with K545E, Q546K counted along it", "test": "KINOMEscan scanMAX", "type": "binding", "details": "2000 nM; read-out: Percent Control"}, "ADCK3 (CABC1)": {"biological_target": "ADCK3 (CABC1) (Homo sapiens (Human), UniProt Q8NI60)", "test": "KINOMEscan scanMAX", "type": "binding", "details": "2000 nM; read-out: Percent Control"}, "CSNK1G2": {"biological_target": "CSNK1G2 (Homo sapiens (Human), UniProt P78368)", "test": "KINOMEscan scanMAX", "type": "binding", "details": "2000 nM; read-out: Percent Control"}, "PIK3CA(E542K)": {"biological_target": "PIK3CA(E542K) (Homo sapiens (Human), UniProt P42336, E542K)", "sequence (P42336 whole entry E542K)": "as the sequence (P42336 whole entry E545K) above, with E542K, K545E counted along it", "test": "KINOMEscan scanMAX", "type": "binding", "details": "2000 nM; read-out: Percent Control"}, "TXK": {"biological_target": "TXK (Homo sapiens (Human), UniProt P42681)", "test": "KINOMEscan scanMAX", "type": "binding", "details": "2000 nM; read-out: Percent Control"}, "p38-delta (MAPK13)": {"biological_target": "p38-delta (MAPK13) (Homo sapiens (Human), UniProt O15264)", "sequence (O15264 whole entry)": "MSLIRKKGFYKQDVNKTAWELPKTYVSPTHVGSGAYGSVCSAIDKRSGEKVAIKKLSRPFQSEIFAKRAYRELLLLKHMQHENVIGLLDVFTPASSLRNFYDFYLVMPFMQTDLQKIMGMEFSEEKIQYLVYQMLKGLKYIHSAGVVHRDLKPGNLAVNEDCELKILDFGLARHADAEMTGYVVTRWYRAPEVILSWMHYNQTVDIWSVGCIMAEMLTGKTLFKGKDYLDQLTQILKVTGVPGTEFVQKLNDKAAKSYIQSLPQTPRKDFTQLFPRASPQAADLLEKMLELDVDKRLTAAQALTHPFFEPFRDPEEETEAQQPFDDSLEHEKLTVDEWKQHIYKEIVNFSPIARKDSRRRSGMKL", "test": "KINOMEscan scanMAX", "type": "binding", "details": "2000 nM; read-out: Percent Control"}, "TBK1": {"biological_target": "TBK1 (Homo sapiens (Human), UniProt Q9UHD2)", "test": "KINOMEscan scanMAX", "type": "binding", "details": "2000 nM; read-out: Percent Control"}, "CAMK2B": {"biological_target": "CAMK2B (Homo sapiens (Human), UniProt Q13554)", "test": "KINOMEscan scanMAX", "type": "binding", "details": "2000 nM; read-out: Percent Control"}, "MAP4K4": {"biological_target": "MAP4K4 (Homo sapiens (Human), UniProt O95819)", "test": "KINOMEscan scanMAX", "type": "binding", "details": "2000 nM; read-out: Percent Control"}, "PCTK1 (CDK16)": {"biological_target": "PCTK1 (CDK16) (Homo sapiens (Human), UniProt Q00536)", "sequence (Q00536 whole entry)": "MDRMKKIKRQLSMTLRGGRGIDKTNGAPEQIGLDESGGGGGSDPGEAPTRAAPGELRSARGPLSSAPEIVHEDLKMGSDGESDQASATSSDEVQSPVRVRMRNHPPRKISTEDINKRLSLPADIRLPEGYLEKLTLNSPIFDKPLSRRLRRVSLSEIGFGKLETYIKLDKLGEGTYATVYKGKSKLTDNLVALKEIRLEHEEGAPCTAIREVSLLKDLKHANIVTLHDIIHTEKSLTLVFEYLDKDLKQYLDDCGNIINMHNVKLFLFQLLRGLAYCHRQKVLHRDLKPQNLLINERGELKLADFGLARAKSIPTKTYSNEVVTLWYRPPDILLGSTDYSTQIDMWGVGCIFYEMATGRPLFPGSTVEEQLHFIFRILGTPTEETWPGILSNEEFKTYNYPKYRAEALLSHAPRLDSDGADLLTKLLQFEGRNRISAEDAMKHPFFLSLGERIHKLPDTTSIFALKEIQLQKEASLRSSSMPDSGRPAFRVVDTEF", "test": "KINOMEscan scanMAX", "type": "binding", "details": "2000 nM; read-out: Percent Control"}, "[3]": {"test": "Serum and tumor PK at study endpoint, C4-2 xenografts", "type": "in vivo, mice", "details": "6-7 hours post last dose, 40 mg/kg orally daily for 4 days", "method": "CDK8/19 inhibition decreases the expression of certain androgen-receptor (AR) inducible genes including PSA, the most common marker of prostate cancer, and the growth of castration-refractory prostate cancers (CRPC). The in vivo effects of Senexin C on PSA expression by C4-2 cells were analyzed after treatment of male NcrNU mice bearing C4-2 xenografts (grouped based on tumor sizes) for 4 days at 40 mg/kg administered orally daily."}}, "note": "pIC50: −log10 of the molar value."}
{"smiles": "CN1CCN(C(=O)c2ccc3cc(CCNc4ccnc5ccc(C#N)cc45)ccc3c2)CC1", "note": "[compound 6148, 4-((2-(6-(4-methylpiperazine-1-carbonyl)naphthalen-2-yl)ethyl)amino)quinoline-6-carbonitrile]", "values": [{"measurement": "remaining binding at 2 µM", "setting": "ROCK2", "value": 71, "unit": "%"}, {"measurement": "pIC50", "setting": "MYC", "value": "7.46 to 7.60"}, {"measurement": "pIC50", "setting": "IL8", "value": "7.46 to 7.60"}, {"measurement": "pIC50", "setting": "CXCL1", "value": "7.46 to 7.60"}, {"measurement": "IC50 in CDK8/19-deficient cells relative to wild-type cells", "setting": "[1]", "value": "> 50", "unit": "times"}, {"measurement": "remaining binding at 2 µM", "setting": "[2]", "value": 89, "unit": "%"}, {"measurement": "remaining binding at 2 µM", "setting": "MLK1 (MAP3K9)", "value": 87, "unit": "%"}, {"measurement": "remaining binding at 2 µM", "setting": "EPHA8", "value": 91, "unit": "%"}, {"measurement": "remaining binding at 2 µM", "setting": "SgK110", "value": 91, "unit": "%"}, {"measurement": "remaining binding at 2 µM", "setting": "MAP4K2", "value": 29, "unit": "%"}, {"measurement": "remaining binding at 2 µM", "setting": "LATS2", "value": 88, "unit": "%"}, {"measurement": "remaining binding at 2 µM", "setting": "LKB1 (STK11)", "value": 87, "unit": "%"}, {"measurement": "remaining binding at 2 µM", "setting": "PIK3CA(E545K)", "value": 55, "unit": "%"}, {"measurement": "remaining binding at 2 µM", "setting": "EIF2AK1", "value": 84, "unit": "%"}, {"measurement": "remaining binding at 2 µM", "setting": "IRAK4", "value": 67, "unit": "%"}, {"measurement": "remaining binding at 2 µM", "setting": "PYK2 (PTK2B)", "value": 92, "unit": "%"}, {"measurement": "remaining binding at 2 µM", "setting": "TAK1 (MAP3K7)", "value": 63, "unit": "%"}, {"measurement": "remaining binding at 2 µM", "setting": "CSNK1E", "value": 81, "unit": "%"}, {"measurement": "remaining binding at 2 µM", "setting": "BMPR2", "value": 66, "unit": "%"}, {"measurement": "remaining binding at 2 µM", "setting": "MAP3K4", "value": 81, "unit": "%"}, {"measurement": "remaining binding at 2 µM", "setting": "PIK3CA(Q546K)", "value": 70, "unit": "%"}, {"measurement": "remaining binding at 2 µM", "setting": "ADCK3 (CABC1)", "value": 100, "unit": "%"}, {"measurement": "remaining binding at 2 µM", "setting": "CSNK1G2", "value": 89, "unit": "%"}, {"measurement": "remaining binding at 2 µM", "setting": "PIK3CA(E542K)", "value": 55, "unit": "%"}, {"measurement": "remaining binding at 2 µM", "setting": "TXK", "value": 94, "unit": "%"}, {"measurement": "remaining binding at 2 µM", "setting": "p38-delta (MAPK13)", "value": 97, "unit": "%"}, {"measurement": "remaining binding at 2 µM", "setting": "TBK1", "value": 88, "unit": "%"}, {"measurement": "remaining binding at 2 µM", "setting": "CAMK2B", "value": 97, "unit": "%"}, {"measurement": "remaining binding at 2 µM", "setting": "MAP4K4", "value": 93, "unit": "%"}, {"measurement": "remaining binding at 2 µM", "setting": "PCTK1 (CDK16)", "value": 68, "unit": "%"}, {"measurement": "Drug concentration in tumor tissues vs serum", "setting": "[3]", "value": "higher Senexin C drug concentration in tumor tissues"}]}
